Data taken from patent publication US20050004079A1, “Pharmaceutical compositions for intranasal administration of [2-(8,9-dioxo-2,6-diazabicyclo[5.2.0]non-1(7)-en-2-yl)alkyl] phosphonic acid and derivatives and methods of use thereof” (Wyeth, priority 2003, published 2005).
Like-named read-outs stand apart in the source and are kept apart here.

Assays:
[1] = tested on: Prostaglandin E2-induced thermal hypersensitivity; test: In vivo efficacy in rats: Prostaglandin E2-induced thermal hypersensitivity (warm-water tail withdrawal); set-up: species or system Spraque-Dawley rats; conditions: for % MPE (reversal of PGE2-induced thermal hypersensitivity): rat, 30 min before PGE2
Experimental: Subjects: Individually housed Spraque-Dawley rats had free access to rat chow and water. A 12-h light/12-h dark cycle was in effect (lights on from 6:00 am to 6:00 pm). Animal maintenance and research were conducted in accordance with the guidelines provided by the National Institutes of Health Committee on Laboratory Animal Resources. These subjects were used in the tests below.
Procedure: The terminal 10 cm of the tail was placed into a thermos bottle containing water warmed to 38, 42, 46, 50 or 54° C. The latency in seconds for the animal to remove the tail from the water was used as a measure of nociception.
Following the assessment of baseline thermal sensitivity, thermal hypersensitivity was produced by a 50 μL injection of 0.1 mg prostaglandin E2 (PGE2) into the terminal 1 cm of the tail. Temperature-effect curves were generated before (baseline) and after (15, 30, 60, 90 and 120 min) the PGE2 injection.
The ability of compounds to reverse PGE2-induced thermal hypersensitivity was assessed using a single dose time-course procedure. Under this procedure, a single dose of the compound to be tested was administered intraperitoneally (IP), orally (PO) or intranasally (IN) 30 min before the injection of PGE2. […] sensitivity was assessed 30 min after PGE2 injection. For the IP and PO administration, compound was administered in a volume of 1 ml/kg with the dose administered calculated as mg/kg. For IN administration, rats were lightly anesthetized with 3.5% halothane in O2 and compound or vehicle was administered in a volume of 25 μL solution dropped into each nostril with the dose administered in absolute mg.
Data Analysis: The temperature that produced a half-maximal increase in the tail-withdrawal latency (i.e., T10) was calculated from each temperature-effect curve. The T10 was determined by interpolation from a line drawn between the point above and the point below 10 sec on the temperature-effect curve. For these studies, thermal hypersensitivity was defined as a leftward shift in the temperature-effect curve and a decrease in the T10 value. Reversal of thermal hypersensitivity was defined as a return to baseline of the temperature-effect curve and the T10 value and was calculated according to the following equation: [formula] in which T10^drug+PGE2 is the T10 after a drug in combination with PGE2, T10^PGE2 is the T10 after PGE2 alone, and T10^baseline is the T10 under control conditions. A % MPE value of 100 indicates a complete return to the baseline thermal sensitivity observed without the PGE2 injection.

[2] = monkey, in vivo, iv, 1.1 mg/kg
[3] = in vivo; conditions: monkey, po

O=c1c2c(c1=O)N(CCP(=O)(O)O)CCCN2 [Compound A, [2-(8,9-dioxo-2,6-diazabicyclo[5.2.0]non-1(7)-en-2-yl)ethyl]phosphonic acid]
in vivo efficacy of intranasal and intraperitoneal administration compared with oral administration ([1]; rat PGE2-induced thermal hypersensitivity model, intranasal and intraperitoneal found similar): ten folds higher | % MPE (reversal of PGE2-induced thermal hypersensitivity) ([1]; IP, 1 mg/kg): −7% | % MPE (reversal of PGE2-induced thermal hypersensitivity) ([1]; IP, 3 mg/kg): 66% | % MPE (reversal of PGE2-induced thermal hypersensitivity) ([1]; IP, 10 mg/kg, 10 mg/kg): 79% | % MPE (reversal of PGE2-induced thermal hypersensitivity) ([1]; PO, 10 mg/kg): 5% | % MPE (reversal of PGE2-induced thermal hypersensitivity) ([1]; PO, 30 mg/kg): 23% | % MPE (reversal of PGE2-induced thermal hypersensitivity) ([1]; PO, 100 mg/kg, 100 mg/kg): 87% | AUC [2]: 1.67 ughr/ml | AUC ([3]; 20 mg/kg): 1740 ng·h/mL | Cmax ([3]; 20 mg/kg): 147 ng/mL | bioavailability ([3]; 100 mg/kg): ~2.5%
